From patent publication US20100029615A1, “BENZIMIDAZOLE DERIVATIVES” (priority 2006, published 2010)
Counter-ions that a name gives are not always drawn.

These compounds were tested against T1, SMO (Mus musculus, UniProt P56726) (assay: Smoothened (SMO)/Sonic Hedgehog (SHh) Transient Transcriptional Activation Assay (Gli-luciferase reporter in C3H10T1/2 cells)). Settings: 2 uM test compound, SHh 250 ng/ml, 20 hrs.
T1 construct: endogenous in cells; host or cells: C3H10T1/2 (ATCC #CCL-226)
Format: cell-based, murine
Summary of the method: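 Luminescence (Dual-Glo) measured after 20 h co-exposure at 37 °C to 250 ng/ml human SHh and compound at 2 uM down to 2 nM final. Cells were C3H10T1/2 carrying a transfected murine 10× Gli response-element luciferase construct with pEGFP, starved 20 h in 0.5% calf serum beforehand.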

T1 sequence (P56726 33-793): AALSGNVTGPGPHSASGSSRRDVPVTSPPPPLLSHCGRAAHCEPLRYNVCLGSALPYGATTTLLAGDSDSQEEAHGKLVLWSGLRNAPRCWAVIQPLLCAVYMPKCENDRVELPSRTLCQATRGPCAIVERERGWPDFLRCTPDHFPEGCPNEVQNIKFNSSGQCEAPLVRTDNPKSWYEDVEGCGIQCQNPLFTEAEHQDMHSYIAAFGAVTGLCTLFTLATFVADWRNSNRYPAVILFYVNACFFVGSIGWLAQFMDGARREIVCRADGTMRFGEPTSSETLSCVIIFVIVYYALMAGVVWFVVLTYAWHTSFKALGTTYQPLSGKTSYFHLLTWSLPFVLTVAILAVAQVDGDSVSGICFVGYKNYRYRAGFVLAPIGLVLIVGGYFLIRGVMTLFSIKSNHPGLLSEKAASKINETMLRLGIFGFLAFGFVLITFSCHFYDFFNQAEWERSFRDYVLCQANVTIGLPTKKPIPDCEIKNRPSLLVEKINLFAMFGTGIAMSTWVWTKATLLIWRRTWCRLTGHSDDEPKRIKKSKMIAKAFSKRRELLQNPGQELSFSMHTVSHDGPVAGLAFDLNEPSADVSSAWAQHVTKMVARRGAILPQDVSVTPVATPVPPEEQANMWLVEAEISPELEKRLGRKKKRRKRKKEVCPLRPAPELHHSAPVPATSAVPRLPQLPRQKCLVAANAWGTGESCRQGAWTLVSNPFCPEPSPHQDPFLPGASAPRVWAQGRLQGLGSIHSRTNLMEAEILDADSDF

**Q.** For “N-(3-(6-(2-Hydroxypropan-2-yl)-1-methyl-1H-benzo[d]imidazol-2-yl)cyclohexyl)-2,3-dihydrobenzo[b][1,4]dioxine-6-carboxamide and N-(3-(5-(2-Hydroxypropan-2-yl)-1-methyl-1H-benzo[d]imidazol-2-yl)cyclohexyl)-2,3-dihydrobenzo[b][1,4]dioxine-6-carboxamide [Example 31]”, which “SMO % inhibition at 2 uM” value is on record?
**A.** 97%

**Q.** “N-(3-(6-(2-Cyanopropan-2-yl)-1-methyl-1H-benzo[d]imidazol-2-yl)cyclohexyl)-2,3-dihydrobenzo[b)[1,4]dioxine-6-carboxamide and N-(3-(5-(2-cyanopropan-2-yl)-1-methyl-1H-benzo[d]imidazol-2-yl)cyclohexyl)-2,3-dihydrobenzo[b][1,4]dioxine-6-carboxamide [Example 36]” was tested. Which “SMO % inhibition at 2 uM” value did it give?
**A.** 93%

Same assay, conditions: 2 μM test compound, SHh 250 ng/ml, 20 hrs, HCl, 2 µM

**Q.** With O=C(N[C@@H]1CCC[C@H](c2nc3ccccc3[nH]2)C1)c1ccc2c(c1)CCCO2 [Example 266, N-[(1R,3S)-3-(1H-benzimidazol-2-yl)cyclohexyl] chromane-6-carboxamide HCl] as the compound, how does the “SMO CELL % INHIBITION @ 2 μM” value read?
**A.** 102.05%

Same assay, conditions: C3H 10T1/2, 2 uM test compound, SHh 250 ng/ml, 20 hrs, read-out: SMO % inhibition at 2 uM

**Q.** COc1cc(OC)cc(C(=O)NC2CCCC(c3nc4ccc(C)cc4[nH]3)C2)c1 (stereo not shown) [Example 5, 3,5-dimethoxy-N-[3-(5-methyl-1H-benzo[d]imidazol-2-yl)cyclohexyl)benzamide] was tested. Which inhibition at 2 µM did it give?
**A.** 102%

**Q.** Which inhibition at 2 µM does the source give for COc1cc(OC)cc(C(=O)NC2CCCC(c3nc4ccc(NS(C)(=O)=O)cc4[nH]3)C2)c1 (stereo not shown) [Example 11, 3,5-Dimethoxy-N-(3-(5-(methylsulfonamido)-1H-benzo[d]imidazol-2-yl)cyclohexyl)benzamide] here?
**A.** 86%

Same assay, conditions: C3H 10T1/2, 2 μM test compound, SHh 250 ng/ml, 20 hrs, read-out: SMO CELL % INHIBITION @ 2 μM

**Q.** With COc1cc(C(=O)N[C@@H]2CCC[C@H](c3nc4ccccc4[nH]3)C2)cc2c1OCO2 [Example 222, N-[(1R,3S)-3-(1H-benzimidazol-2-yl)cyclohexyl]-7-methoxy-1,3-benzodioxole-5-carboxamide triflouroacetate] as the compound, how does the inhibition at 2 µM read?
**A.** 52%

**Q.** With O=C(N[C@@H]1CCC[C@H](c2nc3ccc(Br)cc3[nH]2)C1)c1ccc2c(c1)OCCO2 [Example 224, N-[(1R,3S)-3-(6-bromo-1H-benzimidazol-2-yl)cyclohexyl]-2,3-dihydro-1,4-benzodioxine-6-carboxamide HCl] as the compound, how does the inhibition at 2 µM read?
**A.** 106%

**Q.** O=C(N[C@@H]1CCC[C@H](c2nc3ccccc3[nH]2)C1)c1cc2cc(Cl)ccc2o1 [Example 181, N-[(1R,3S)-3-(1H-benzimidazol-2-yl)cyclohexyl]-5-chloro-1-benzofuran-2-carboxamide triflouroacetate] was tested. Which inhibition at 2 µM did it give?
**A.** 104%

**Q.** With COc1cc(OC)cc(C(=O)NC23CCCC(c4nc5cc(C(F)(F)F)ccc5[nH]4)(C2)C3)c1 [Example 259, 3,5-dimethoxy-N-{5-[5-(trifluoromethyl)-1H-benzimidazol-2-yl)bicyclo[3.1.1]hept-1-yl}benzamide] as the compound, how does the inhibition at 2 µM read?
**A.** 95.5%

**Q.** How did the inhibition at 2 µM turn out when COc1cc(OC)cc(C(=O)N[C@H]2CCC[C@H](c3nc4ccccc4[nH]3)C2)c1 [Example 252, N-(3-(1H-benzo[d]imidaz-ol-2-yl)cyclohexyl)-3,5-dimethoxybenz-amide HCl] was run?
**A.** 46%

**Q.** How did the inhibition at 2 µM turn out when Cn1c(=O)[nH]c2cc(C(=O)NC3CCCC(c4nc5ccccc5[nH]4)C3)ccc21 (stereo not shown) [Example 143, N-[3-(1H-benzimidazol-2-yl)cyclohexyl]-1-methyl-2-oxo-2,3-dihydro-1H-benzimidazole-5-carboxamide triflouroacetate] was run?
**A.** 87%

**Q.** COc1ccc2nc([C@H]3CCC[C@@H](NC(=O)c4ccc5c(c4)OCCO5)C3)[nH]c2c1 [Example 180, N-[(1R,3S)-3-(6-methoxy-1H-benzimidazol-2-yl)cyclohexyl]-2,3-dihydro-1,4-benzodioxine-6-carboxamide HCl] was tested. Which inhibition at 2 µM did it give?
**A.** 107%

**Q.** CC(=O)c1ccc(OCC(=O)NC2CCCC(c3nc4ccccc4[nH]3)C2)cc1 (stereo not shown) [Example 157, 2-(4-acetylphenoxy)-N-[3-(1H-benzimidazol-2-yl)cyclohexyl] acetamide triflouroacetate] was tested. Which inhibition at 2 µM did it give?
**A.** 52%

**Q.** For O=C(NC1CCCC(c2nc3ccccc3[nH]2)C1)c1ccc2c(c1)OCO2 (stereo not shown) [Example 58, N-[3-(1H-benzimidazol-2-yl)cyclohexyl]-1,3-benzodioxole-5-carboxamide HCl], which inhibition at 2 µM is on record?
**A.** 82%

**Q.** Which inhibition at 2 µM does the source give for O=C(N[C@@H]1CCC[C@H](c2nc3ccccc3[nH]2)C1)c1cccc2ccccc12 [Example 188, N-[(1R,3S)-3-(1H-benzimidazol-2-yl)cyclohexyl]-1-naphthamide triflouroacetate] here?
**A.** 64%

**Q.** Which inhibition at 2 µM does the source give for N#Cc1ccc(NC(=O)NC23CCCC(c4nc5cc(Cl)ccc5[nH]4)(C2)C3)cc1 [Example 270, 1-[5-(5-chloro-1H-benzimidazol-2-yl)bicyclo[3.1.1]hept-1-yl]-3-(4-cyanophenyl) urea] here?
**A.** 107%

**Q.** [N-]=[N+]=Nc1ccc(C(=O)NC23CCCC(c4nc5ccccc5[nH]4)(C2)C3)cc1 [Example 277, 4-azido-N-[5-(1H-benzimidazol-2-yl)bicyclo[3.1.1]hept-1-yl]benzamide] was tested. Which inhibition at 2 µM did it give?
**A.** 82.3%

**Q.** With C[S+]([O-])c1ccc(C(=O)NC2CCCC(c3nc4ccccc4[nH]3)C2)cc1 (stereo not shown) [Example 126, N-[3-(1H-benzimidazol-2-yl)cyclophexyl]-4-(methylsulfinyl) benzamide triflouroacetate] as the compound, how does the inhibition at 2 µM read?
**A.** 83%

**Q.** Cc1noc(C)c1NC(=O)N[C@@H]1CCC[C@H](c2nc3ccccc3[nH]2)C1 [Example 233, 1-((1R,3S)-3-(1H-benzo[d]imidaz-ol-2-yl)cyclohexyl)-3-(3,5-dimethylisoxaz-ol-4-yl)urea] was tested. Which inhibition at 2 µM did it give?
**A.** 48%

**Q.** COc1cc(OC)cc(C(=O)N[C@@H]2CCC[C@H](c3nc4ccccc4[nH]3)C2)c1 [Example 166, N-[(1R,3S)-3-(1H-benzimidazol-2-yl)cyclohexyl]-3,5-dimethoxybenz-amide HCl] was tested. Which inhibition at 2 µM did it give?
**A.** 109%

**Q.** CC(=O)N[C@H](Cc1ccccc1)C(=O)NC1CCCC(c2nc3ccccc3[nH]2)C1 (stereo partly drawn) [Example 123, Nalpha-acetyl-N-[3-(1H-benzimidazol-2-yl)cyclohexyl]-D-phenylalanin-amide triflouroacetate] was tested. Which inhibition at 2 µM did it give?
**A.** 83%

**Q.** How did the inhibition at 2 µM turn out when COc1cc(C(=O)N[C@@H]2CCC[C@H](c3nc4ccccc4[nH]3)C2)ccn1 [Example 165, N-[(1R,3S)-3-(1H-benzimidazol-2-yl)cyclohexyl]-2-methoxyisonico-tinamide HCl] was run?
**A.** 63%

**Q.** Which inhibition at 2 µM does the source give for CN(C)S(=O)(=O)CC(=O)NC1CCCC(c2nc3ccccc3[nH]2)C1 (stereo not shown) [Example 162, N-[3-(1H-benzimidazol-2-yl)cyclohexyl]-2-{(dimethylamino)-sulfonyl]-acetamide triflouroacetate] here?
**A.** 71%

**Q.** How did the inhibition at 2 µM turn out when O=C(N[C@H]1CCC[C@@H](c2nc3ccc(Cl)cc3[nH]2)C1)c1ccc2c(c1)OCCO2 [Example 179, N-[(1S,3R)-3-(6-chloro-1H-benzimidazol-2-yl)cyclohexyl]-2,3-dihydro-1,4-benzodioxine-6-carboxamide HCl] was run?
**A.** 106%

**Q.** With O=C(N[C@@H]1CCC[C@H](c2nc3cc(C(F)(F)F)ccc3[nH]2)C1)c1n[nH]c2c1CCCCCC2 [Example 283, N-{(1R,3S)-3-[5-(trifluoromethyl)-1H-benzimidazol-2-yl]cyclohexyl} 4,5,6,7,8,9-hexahydro-1H-cycloocta[c]-pyrazole-3-carboxamide HCl] as the compound, how does the inhibition at 2 µM read?
**A.** 106%

**Q.** With O=C(N[C@@H]1CCC[C@H](c2nc3cc(C(F)(F)F)ccc3[nH]2)C1)c1ccc2c(c1)CNCC2 [Example 303, N-{(1R,3S)-3-[5-(trifluoromethyl)-1H-benzimidazol-2-yl]cyclohexyl}-1,2,3,4-tetrahydroiso-quinoline-7-carboxamide HCl] as the compound, how does the inhibition at 2 µM read?
**A.** 111%

**Q.** Which inhibition at 2 µM does the source give for Cc1nc2cc(C(=O)N[C@@H]3CCC[C@H](c4nc5ccccc5[nH]4)C3)ccc2s1 [Example 215, N-[(1R,3S)-3-(1H-benzimidazol-2-yl)cyclohexyl]-2-methyl-1,3-benzothiazole-5-carboxamide triflouroacetate] here?
**A.** 46%

**Q.** Which inhibition at 2 µM does the source give for Cn1c(C23CCCC(NC(=O)c4ccc5c(c4)OCCO5)(C2)C3)nc2ccccc21 [Example 244, N-(5-(1-methyl-1H-benzo[d]imidaz-ol-2-yl)bicyclo[3.1.1]heptan-1-yl)-2,3-dihydrobenzo[b] [1,4]dioxine-6-carboxamide] here?
**A.** 66%

**Q.** CN1C[C@H](O)CC1C(=O)NC1CCCC(c2nc3ccccc3[nH]2)C1 (stereo partly drawn) [Example 113, (4R)-N-[3-(1H-benzimidazol-2-yl)cyclohexyl]-4-hydroxy-1-methyl-L-prolinamide triflouroacetate] was tested. Which inhibition at 2 µM did it give?
**A.** 93%

**Q.** For O=C(N[C@@H]1CCC[C@H](c2nc3ccccc3[nH]2)C1)c1ccc2c(c1)CNCC2 [Example 308, N-[(1R,3S)-3-(1H-benzimidazol-2-yl)cyclohexyl]-1,2,3,4-tetrahydroiso-quinoline-7-carboxamide HCl], which inhibition at 2 µM is on record?
**A.** 96.2%

**Q.** O=C(N[C@@H]1CCC[C@H](c2nc3ccccc3[nH]2)C1)c1ccc2c(c1)CCCO2 [Example 265, N-[(1R,3S)-3-(1H-benzimidazol-2-yl)cyclohexyl] chromane-6-carboxamide] was tested. Which inhibition at 2 µM did it give?
**A.** 103%

**Q.** For Cn1c([C@@H]2CCC[C@@H](NC(=O)c3ccc4c(c3)OCCO4)C2)nc2ccccc21 [Example 240, N-([1R,3R]-3-(1-methyl-1H-benzo[d]imidaz-ol-2-yl)cyclohexyl)-2,3-dihydrobenzo[b] [1,4]dioxine-6-carboxamide HCl], which inhibition at 2 µM is on record?
**A.** 60%

**Q.** For COCCn1c([C@H]2CCC[C@@H](NC(=O)c3ccc4c(c3)OCCO4)C2)nc2ccccc21 [Example 76, N-{(1R,3S)-3-[1-(2-methoxyethyl)-1H-benzimidazol-2-yl]cyclohexyl}-2,3-dihydro-1,4-benzodioxine-6-carboxamide], which inhibition at 2 µM is on record?
**A.** 101%

**Q.** For O=C(N[C@@H]1CCC[C@@H](c2nc3ccccc3[nH]2)C1)c1ccc2c(c1)OCCO2 [Example 241], which inhibition at 2 µM is on record?
**A.** 63%
